Assay results as given in ChEMBL document CHEMBL6103624, “Design, Synthesis, and Biological Evaluation of Marchantin C-NO Donor Hybrids for Overcoming Pgp-Mediated Drug Resistance by Targeting Lysosome” (J Med Chem, 2025).
pIC50: −log10 of the molar value.

What was measured:
MCF7 = test: Antiproliferative activity against human MCF7 cells assessed as inhibition of cell growth incubated for 48 hrs by MTT assay; type: functional, cell-based; settings: MCF7, 48 h
NCI/ADR-RES = test: Antiproliferative activity against human MCF7ADR cells assessed as inhibition of cell growth incubated for 48 hrs by MTT assay; type: functional, cell-based
[1] = Selectivity index, ratio of IC50 for antiproliferative activity against human MCF7 cells assessed as inhibition of cell growth to IC50 for antiproliferative activity against human MCF7ADR cells assessed as inhibition of cell growth; type: functional
A549 = test: Antiproliferative activity against human A549 cells assessed as inhibition of cell growth incubated for 48 hrs by MTT assay; type: functional, cell-based; settings: A549, 48 h
A549/TR = test: Antiproliferative activity against human A549/Taxol cells assessed as inhibition of cell growth incubated for 48 hrs by MTT assay; type: functional, cell-based
HepG2 = test: Antiproliferative activity against human HepG2 cells assessed as inhibition of cell growth incubated for 48 hrs by MTT assay; type: functional, cell-based; settings: HepG2, 48 h
PC-3 = test: Antiproliferative activity against human PC-3 cells assessed as inhibition of cell growth incubated for 48 hrs by MTT assay; type: functional, cell-based; settings: PC-3, 48 h
[2] = Selectivity index, ratio of IC50 for antiproliferative activity against human A549 cells assessed as inhibition of cell growth to IC50 for antiproliferative activity against human A549/Taxol cells assessed as inhibition of cell growth; type: functional
[3] = Cytotoxicity against human MCF-10A cells assessed as inhibition of cell growth incubated for 48 hrs by MTT assay; type: toxicity, cell-based
[4] = Cytotoxicity against human BEAS-2B cells assessed as inhibition of cell growth incubated for 48 hrs by MTT assay; type: toxicity, cell-based

pIC50 (MCF7)	pIC50 (A549)	pIC50 (A549/TR)	pIC50 (HepG2)	pIC50 (PC-3)	SMILES	pIC50 (NCI/ADR-RES)	Ratio IC50 [1]	Ratio IC50 [2]	IC50 at 48 h [3]	IC50 at 48 h [4]
	< 4.40		< 4.70	< 4.70	CCO/N=[N+](\[O-])N1CCN(Cc2ccc3c(c2O)Oc2cccc(c2)CCc2ccc(O)c(c2)Oc2ccc(cc2)CC3)CC1					
	< 4.40		< 4.70	< 4.70	O=C(CCCOc1no[n+]([O-])c1S(=O)(=O)c1ccccc1)Oc1cccc2c1Oc1cccc(c1)CCc1ccc(O)c(c1)Oc1ccc(cc1)CC2					
< 4.70	< 4.40		< 4.70	< 4.70	O=S(=O)(c1ccccc1)c1c(Oc2ccc(COc3cccc4c3Oc3cccc(c3)CCc3ccc(O)c(c3)Oc3ccc(cc3)CC4)cc2)no[n+]1[O-]	< 5.52	<7			
< 4.70	< 4.40	< 4.70	< 4.70	< 4.70	O=S(=O)(c1ccccc1)c1c(OCCCCOc2ccc3cc2Oc2ccc(cc2)CCc2cccc(OCCCCOc4no[n+]([O-])c4S(=O)(=O)c4ccccc4)c2Oc2cccc(c2)CC3)no[n+]1[O-]	< 5.52	<7			
4.82	< 4.40	4.92	< 4.70	5.36	O=S(=O)(c1ccccc1)c1c(OCCOCCOc2cccc3c2Oc2cccc(c2)CCc2ccc(O)c(c2)Oc2ccc(cc2)CC3)no[n+]1[O-]	6.00	15	>3	< 2.5 µM	5.14 µM
	< 4.40		< 4.70	< 4.70	CO/N=[N+](\[O-])N1CCN(Cc2ccc3c(c2O)Oc2cccc(c2)CCc2ccc(O)c(c2)Oc2ccc(cc2)CC3)CC1					
> 7.60					COc1cccc2c1C(=O)c1c(O)c3c(c(O)c1C2=O)C[C@@](O)(C(=O)CO)C[C@@H]3O[C@H]1C[C@H](N)[C@H](O)[C@H](C)O1 [DOXORUBICIN]	4.49	<0.001		< 2.5 µM	< 2.5 µM
4.60	4.39	4.94	< 4.70	< 4.70	O=S(=O)(c1ccccc1)c1c(OCCOc2ccc3cc2Oc2ccc(cc2)CCc2cccc(OCCOc4no[n+]([O-])c4S(=O)(=O)c4ccccc4)c2Oc2cccc(c2)CC3)no[n+]1[O-]	5.49	8	4		
	< 4.40		< 4.70	< 4.70	O=C(/C=C\COc1no[n+]([O-])c1S(=O)(=O)c1ccccc1)Oc1ccc2cc1Oc1ccc(cc1)CCc1cccc(OC(=O)/C=C\COc3no[n+]([O-])c3S(=O)(=O)c3ccccc3)c1Oc1cccc(c1)CC2					
< 4.70	< 4.40	< 4.70	< 4.70	< 4.70	O=C(CCCCCOc1no[n+]([O-])c1S(=O)(=O)c1ccccc1)Oc1ccc2cc1Oc1ccc(cc1)CCc1cccc(OC(=O)CCCCCOc3no[n+]([O-])c3S(=O)(=O)c3ccccc3)c1Oc1cccc(c1)CC2	< 5.52	<7			
	< 4.40		< 4.70	< 4.70	O=C(CCCCCOc1no[n+]([O-])c1S(=O)(=O)c1ccccc1)Oc1cccc2c1Oc1cccc(c1)CCc1ccc(O)c(c1)Oc1ccc(cc1)CC2					
5.04	4.72	5.47	5.77	5.53	O=S(=O)(c1ccccc1)c1c(OCCOc2cccc3c2Oc2cccc(c2)CCc2ccc(O)c(c2)Oc2ccc(cc2)CC3)no[n+]1[O-]	6.05	10	6		13.7 µM
4.68	4.42	4.99	< 4.70	< 4.70	O=S(=O)(c1ccccc1)c1c(OCCCOc2ccc3cc2Oc2ccc(cc2)CCc2cccc(OCCCOc4no[n+]([O-])c4S(=O)(=O)c4ccccc4)c2Oc2cccc(c2)CC3)no[n+]1[O-]	6.00	21	4		
5.07	4.47	5.32		5.92	O=S(=O)(c1ccccc1)c1c(OCCCOc2ccc3cc2Oc2ccc(cc2)CCc2cccc(O)c2Oc2cccc(c2)CC3)no[n+]1[O-]	6.62	35	7		< 2.5 µM

More lines, now with the values behind:

SMILES	pIC50 (MCF7)	pIC50 (A549)	pIC50 (A549/TR)	pIC50 (HepG2)	pIC50 (PC-3)	pIC50 (NCI/ADR-RES)	Ratio IC50 [1]	Ratio IC50 [2]	IC50 at 48 h [3]	IC50 at 48 h [4]
O=C(/C=C\COc1no[n+]([O-])c1S(=O)(=O)c1ccccc1)Oc1cccc2c1Oc1cccc(c1)CCc1ccc(O)c(c1)Oc1ccc(cc1)CC2	4.86	< 4.40	< 4.70	5.19	< 4.70	< 5.52	<5			
O=S(=O)(c1ccccc1)c1c(OCCCCOc2cccc3c2Oc2cccc(c2)CCc2ccc(O)c(c2)Oc2ccc(cc2)CC3)no[n+]1[O-]	< 4.70	< 4.40	5.23	< 4.70	< 4.70	7.01	>204	>7	8.32 µM	> 20 µM
O=C(/N=c1/c[n+](-c2ccccc2)[n-]o1)Oc1ccc2cc1Oc1ccc(cc1)CCc1cccc(OC(=O)/N=c3/c[n+](-c4ccccc4)[n-]o3)c1Oc1cccc(c1)CC2		< 4.40		< 4.70	< 4.70					
O=S(=O)(c1ccccc1)c1c(OCCCCCCOc2ccc3cc2Oc2ccc(cc2)CCc2cccc(OCCCCCCOc4no[n+]([O-])c4S(=O)(=O)c4ccccc4)c2Oc2cccc(c2)CC3)no[n+]1[O-]	4.56	< 4.40	< 4.70	< 4.70	< 4.70	< 5.52	<9			
O=C(CCCOc1no[n+]([O-])c1S(=O)(=O)c1ccccc1)Oc1ccc2cc1Oc1ccc(cc1)CCc1cccc(OC(=O)CCCOc3no[n+]([O-])c3S(=O)(=O)c3ccccc3)c1Oc1cccc(c1)CC2	4.82	4.40	4.82	< 4.70	< 4.70	6.17	22	3		
O=S(=O)(c1ccccc1)c1c(OC/C=C\COc2ccc3cc2Oc2ccc(cc2)CCc2cccc(OC/C=C\COc4no[n+]([O-])c4S(=O)(=O)c4ccccc4)c2Oc2cccc(c2)CC3)no[n+]1[O-]	< 4.70					< 5.52	<7			
O=S(=O)(c1ccccc1)c1c(OCCOc2ccc3cc2Oc2ccc(cc2)CCc2cccc(O)c2Oc2cccc(c2)CC3)no[n+]1[O-]	4.96	4.82	5.27		5.57	6.70	55	3		
O=[N+]([O-])OCC(COc1ccc2cc1Oc1ccc(cc1)CCc1cccc(OCC(CO[N+](=O)[O-])O[N+](=O)[O-])c1Oc1cccc(c1)CC2)O[N+](=O)[O-] (stereo unspecified)	< 4.70	< 4.40		< 4.70	< 4.70	< 4.70				
O=S(=O)(c1ccccc1)c1c(OC/C=C\COc2cccc3c2Oc2cccc(c2)CCc2ccc(O)c(c2)Oc2ccc(cc2)CC3)no[n+]1[O-]	< 4.70	< 4.40	< 4.70			< 5.52	<7			
CC(=O)CCCCn1c(=O)c2c(ncn2C)n(C)c1=O [PENTOXIFYLLINE]		4.96	< 4.70					<0.5		
